The results in this text go back to paper PMC7439407 (Science Advances, 2020).

Each structure is given as a SMILES string.

This assay addresses arginine repressor ArgR. The assay is described as follows: SPR. It counts as binding, Staphylococcus aureus.

Consider `O=c1oc2ccccc2c(O)c1C(c1ccc(Cl)c(Cl)c1)c1c(O)c2ccccc2oc1=O` [DCH, 3,3′-(3,4-dichlorobenzylidene)-bis-(4-hydroxycoumarin)], for which the Kd was 82 nM.

The Kd is the free concentration of one partner at which half of the binding sites on the other are occupied at equilibrium, for simple one-to-one binding.
